Test results as given in PubChem BioAssay (NCI).
Where “and” joins values, the source holds several entries; their conditions need not be identical. Identical values can stand only once.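 Method: 48-hour compound exposure of cells in 96-well plates, five concentrations, linear interpolation of endpoints. GI50 = concentration required for 50% inhibition of growth. TGI: total growth inhibition.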 Where a SMILES comes first, the peptide text is derived from it. The star is where a group is joined. Boc = CC(C)(C)OC(=O)*

Legend:
Assay in all cases: NCI-60 cell line screen, 48 h
A549 NSCLC = system: A549 NSCLC
MOLT-4 leukemia = system: MOLT-4 leukemia
SK-MEL-28 melanoma = system: SK-MEL-28 melanoma
SW-620 colon = system: SW-620 colon
786-0 renal = system: 786-0 renal
NCI-H23 lung = system: NCI-H23 lung
NCI-H460 lung = system: NCI-H460 lung
DU-145 prostate = system: DU-145 prostate
SNB-75 CNS = system: SNB-75 CNS
MDA-MB-231 breast = system: MDA-MB-231 breast
HOP-92 NSCLC = system: HOP-92 NSCLC

Structure (SMILES)	TGI (A549 NSCLC)	TGI (MOLT-4 leukemia)	TGI (SK-MEL-28 melanoma) [µM]	TGI (SW-620 colon) [µM]	TGI (786-0 renal) [µM]	TGI (NCI-H23 lung) [µM]	TGI (NCI-H460 lung)	TGI (DU-145 prostate) [µM]	TGI (SNB-75 CNS)	TGI (MDA-MB-231 breast) [µM]	TGI (HOP-92 NSCLC) [µM]	GI50 (A549 NSCLC) [µM]	GI50 (MOLT-4 leukemia)	GI50 (NCI-H23 lung) [µM]	GI50 (DU-145 prostate) [µM]	GI50 (SNB-75 CNS)	GI50 (MDA-MB-231 breast) [µM]	GI50 (HOP-92 NSCLC) [µM]
Cc1[nH]c(=O)nc(NNCc2ccc(Cl)cc2)c1C(=O)Nc1ccc(Cl)cc1	> 100 µM	> 100 µM	> 100	> 100	> 100	> 100	> 100 µM	> 100	> 100 µM	> 100	> 100							
COC(=O)CC1c2ccccc2N2C(=O)Cc3c([nH]c4ccccc34)C12 (centres undefined)	> 100 µM	> 100 µM	> 100	> 100	> 100	> 100	> 100 µM	> 100	> 100 µM	> 100	> 100							
c1ccc([I+]c2ccccc2)cc1	> 100 µM	> 100 µM	> 100	> 100	> 100	> 100	> 100 µM	> 100		> 100	> 100							
NS(=O)(=O)c1ccc(/C=C/c2ccc(O)cc2)cc1	55.4 µM	> 100 µM	78.2	> 100	89.6	60.1	> 100 µM	> 100	78.6 µM	60.7	39.5	13.9	22.6 µM	16.9				
CCOC(=O)/C=C(/C)Nc1nc2c(c(C(=O)OC)c1C#N)CCCC2	> 100 µM	> 100 µM	> 100	> 100	> 100	> 100	> 100 µM	> 100		> 100	> 100							
CC(=O)Oc1ccc2c3c1O[C@H]1[C@H](O)CC[C@@]4(O)[C@@H](C2)N(C)CC[C@]314	> 100 µM	> 100 µM	> 100	> 100	> 100	> 100		> 100		> 100	> 100							
O=C(NNC(=O)c1csc(NC(=S)NC2CCCCC2)n1)c1ccccc1	54.1 µM	44.9 µM		29.5	31	40.6		51.3	> 100 µM	30.8								
Cc1cccc(N/C(Sc2ccccc2)=C(/C(Cl)=C(Cl)Cl)[N+](=O)[O-])c1	47.4 µM	> 100 µM	32.4	31.1	32.9	37	> 100 µM	62.2	68 µM	53.9								
CCOC(=O)c1nnc2c(C#N)c(-c3ccccc3)c(C)n2c1N	> 100 µM	> 100 µM	73.2	> 100	> 100	> 100	> 100 µM	> 100		> 100								
CCOC(=O)c1nc2ccc(C(F)(F)F)cc2nc1Oc1ccc(C(=O)OC)cc1		> 100 µM	> 100	> 100	> 100	> 100	> 100 µM	> 100	> 100 µM	> 100	> 100							
CCOc1cc2c(c(OCC)c1O)CC[C@@H]1[C@@H]2CC[C@]2(C)[C@@H](O)CC[C@@H]12	> 100 µM	> 100 µM		41.7	> 100	41.4		37.4	10.6 µM	24.3	67.6				3.32			
COc1cc2c(c(OC)c1OC)-c1ccc(SC)cc1C(O)CC2 (centres undefined)	34.6 µM		> 100	> 100	> 100	> 100	19.5 µM	> 100	34.7 µM	> 100	> 100					43.5 µg/mL		
COc1ccc(-c2c(C#N)c(S)n(NS(=O)(=O)c3ccccc3)c(=O)c2C#N)cc1	> 100 µM	> 100 µM	> 100	> 100	> 100	> 100	> 100 µM	> 100	> 100 µM	> 100								
COc1ccc2nc3cccc([N+](=O)[O-])c3c(NCCCO)c2c1	0.0223 µM and 0.102 µM	0.036 µM and 0.0847 µM		0.0323	0.0517	0.05	0.00233 µM and 0.0153 µM	15.6	0.0482 µM and 0.263 µM		0.0565		0.00328 µM and 0.0181 µM	0.0117		0.0151 µM and 0.0535 µM	2.26	0.0154
COC(=O)[C@H](Cc1ccc(O)cc1)NC(=O)[C@H](Cc1ccc(O)cc1)NC(=O)OC(C)(C)C (Boc-Tyr-Tyr-OMe)	> 100 µM				> 100	> 100	> 100 µM	> 100	> 100 µM	> 100								
CC1(C)N=C(C2CCCN2C(=O)OCc2ccccc2)OC1=O (centres undefined)	> 100 µM	> 100 µM	> 100	> 100	> 100	> 100	> 100 µM	> 100	> 100 µM	> 100								
